Experimental data reported in patent publication US6084072A, “Purified lectin and methods of use” (The Regents of the University of Michigan, priority 1993, dated 2000).
Several values for one entry are separate records, joined by “and”; a condition that tells them apart may be missing. Equal values may be shown once. Read-outs that look alike come from different tables or passages of the source.

Legend:
hog lymphocytes = conditions: cited from earlier work
[1] = test system: normal colonic epithelium; format: binding, human; design: key to Labeling of normal colon in the tissue survey / Staining (global score 0-3+): 4^+: Maximum labeling of the brown reaction product; 0: No staining of the slide compared to control sections; 1^+: trace or weak staining definitely not seen on control slides; 2+3^+: stronger staining, but definitely less than maximal
HNPCC tissues = assay: Lectin histochemistry, HNPCC rectal biopsies; format: binding, human; design: key to Staining (global score 0-3+): 4^+: Maximum labeling of the brown reaction product; 0: No staining of the slide compared to control sections; 1^+: trace or weak staining definitely not seen on control slides; 2+3^+: stronger staining, but definitely less than maximal; conditions: listed as ACA; for Weighted Average (0-400): mean ± SEM
From the text: Rectal biopsies were obtained from individuals who were first degree relatives of patients with hereditary nonpolyposis colorectal cancer (HNPCC) as identified by H. T. Lynch, M.D. These patients were the siblings or offspring of index patients who fit the criteria for Lynch Syndrome I or II. See Drzeniek, Z., and Usowska, E. (1979) Arch. Immunol Ther. Exp. 27, 253-262. However, since there is no definitive genetic or phenotypic marker for this familial syndrome, it is not possible to be certain that these patients represent a single homogenous genetic abnormality. The biopsies were fixed in formalin, and embedded in paraffin for tissue sectioning.
Four micron paraffin embedded tissue sections attached to glass slides were deparaffinized by serial incubations in xylene (twice), absolute ethanol (thrice), 95% ethanol, 70% ethanol, water and finally equilibrated in phosphate buffered saline (PBS), pH 7.0, containing 0.1% bovine serum albumin (BSA) commercially available from Sigma Corp of St. Louis, Mo. The slides were blotted dry adjacent to the tissue sections, and biotinylated lectin was added at a concentration of 10 μg/ml (for ACA) and 20 μg/ml (for PNA) in a quantity sufficient to completely cover the hydrated tissue (100-2001 μl). The lectin was rinsed off after a 30 minute incubation by eight 2-second dips into phosphate buffered saline. The slides were again blotted, and the tissue covered with Streptavidin-horseradish peroxidase (HRP) obtained from Zymed Laboratories, San Francisco, Calif. at a concentration of 10 μg/ml for 30 minutes. The slides were rinsed as mentioned above, and the pigmented reaction product developed by the addition of a freshly prepared chromogen reagent solution prepared within two hours of use as follows. […]
Therefore, each individual crypt of Lieberkuhn was given a score from 0-4^+, and the labeling was expressed as a "weighted average", or, the sum of scores from 100 crypts, which could range from 0 (all crypts not labeled) to 400 (all 100 crypts maximally labeled). […]

[2] = test system: mucin purified from the LS174T xenograft; assay: Solid phase enzyme-linked lectin-binding assay
Experimental: A solid phase enzyme-linked lectin-binding assay has been developed for ACA to quantitate lectin binding to solubilized glycoconjugates. ACA is more sensitive in the measurement of purified cancer-associated mucin than peanut lectin, and can detect as little as 1 mg of mucin purified from the LS174T xenograft.

[3] = test system: well differentiated colonic adenocarcinoma sections; assay: Inhibition of lectin binding with hapten sugars on tissue sections; design: species or system human; key to Labeling score: 4^+: Maximum labeling of the brown reaction product; 0: No staining of the slide compared to control sections; 1^+: trace or weak staining definitely not seen on control slides; 2+3^+: stronger staining, but definitely less than maximal
Experimental: Four micron paraffin embedded tissue sections attached to glass slides were deparaffinized by serial incubations in xylene (twice), absolute ethanol (thrice), 95% ethanol, 70% ethanol, water and finally equilibrated in phosphate buffered saline (PBS), pH 7.0, containing 0.1% bovine serum albumin (BSA) commercially available from Sigma Corp of St. Louis, Mo. The slides were blotted dry adjacent to the tissue sections, and biotinylated lectin was added at a concentration of 10 μg/ml (for ACA) and 20 μg/ml (for PNA) in a quantity sufficient to completely cover the hydrated tissue (100-2001 μl). The lectin was rinsed off after a 30 minute incubation by eight 2-second dips into phosphate buffered saline. The slides were again blotted, and the tissue covered with Streptavidin-horseradish peroxidase (HRP) obtained from Zymed Laboratories, San Francisco, Calif. at a concentration of 10 μg/ml for 30 minutes. The slides were rinsed as mentioned above, and the pigmented reaction product developed by the addition of a freshly prepared chromogen reagent solution prepared within two hours of use as follows.
3,3'-diaminobenzidine was aliqotted at 5 mg/mL in 0.01 M (Tris) tris hydroxy methyl amino methane saline, pH 7.5 and frozen at -70° C. until use. For use, the aliquot was thawed, diluted 1:10 in 0.01 M (Tris) tris hydroxy methyl amino methane saline pH 7.5, and 3.3 μL of 30% H2 O2 were added to each 5 ml. This solution was allowed to stand for 10 min, and 100-200 μl was applied to the tissue sections that had been incubated earlier with biotinylated lectin and Streptavidin-HRP. After 10 min, the slides were rinsed with albumin-free phosphate buffered saline. The tissues were briefly counterstained for 50 seconds with Gill's #3 hematoxylin bovine serum albumin, commercially available from Sigma Corp. of St. Louis, Mo., rinsed with water, and serially dehydrated using graded alcohols and xylene, and embedded in Permount, a trademarked, commercially available product of Allied-Fischer Scientific of Livonia, Mich.
The specificity of lectin binding was evaluated by preincubating the biotinylated lectin with inhibitory hapten sugar for 1-2 hours prior to its application to the tissue. In each instance, the reagents were prepared so that the final concentration of lectin on the slide was either 10 or 20 μg/ml and the hapten sugar was as indicated in the results. Galactose, lactose, GalNAc, and galactose-β1-3N-acetylgalactosamine-α-O-benzyl (T-antigen-α-O-benzyl) were also obtained from Sigma Corp.
The stained sections were examined with a light microscope using a 25× and 40× objective lenses and 10× eyepiece. Evaluation of lectin binding required the use of several approaches. First, the binding specificity was confirmed by coincubation of lectin with hapten sugars known to bind the lectin maximally. Maximum labeling of the brown reaction product was arbitrarily assigned a score 4^+. See Boland, C. R., Bresalier, R. S., and Roberts, J. A. "Assay of lectin binding sites in colonic cancer-associated mucins: comparison of fluorescence microscopy with a quantitative chromatographic technique." J. Histochem. Cytochem., 36: 1329-1334, 1988. No staining of the slide compared to control sections (i.e., in which lectin was omitted from the staining procedure) was assigned a score of 0. Intermediate scores of 1^+ (trace or weak staining definitely not seen on control slides) and 2+3^+ (stronger staining, but definitely less than maximal) were assigned. […] See Boland. This method was used to confirm the binding specificity to known "positive" tissues and to evaluate changes in lectin binding after neuraminidase treatment.
Specimens of well differentiated colonic cancers were incubated with biotinylated lectins. Working concentrations on the slide were 10 μg/ml for ACA and 20 μg/ml for PNA. The hapten sugars galactose (Gal), N-acetylgalactosamine (GalNAc), and Galβ1,3GalNAc-α-O-benzyl (T-antigen) were used to inhibit lectin binding to the tissues. […]

[4] = biotinylated ACA 10 μg/mL or PNA 20 μg/mL

For amaranthin, the “mitogenicity, in words” value (hog lymphocytes) is listed as “non-mitogenic”, the “Labeling of normal colon in the tissue survey” value [1] is listed as 1^+ and the “Staining (global score 0-3+)” value [1, 4] is listed as 1^+. For the same substance, the “Percent of Epithelial Units Labeled” value ([1]; lower half of crypt, mean ± SEM, listed as ACA) was 46±4% and 46%±4%, the “Weighted Average (0-400)” value ([1]; sum of scores of 100 epithelial units, mean ± SEM, listed as ACA) was 65±33 and the “Percent of Epithelial Units Labeled” value ([1]; upper half of crypt, mean ± SEM, listed as ACA) was 7±2% and 7%±2%. For the same substance, the “Weighted Average (0-400)” value (HNPCC tissues; HNPCC outliers) was 203±43, the “Weighted Average (0-400)” value (HNPCC tissues; HNPCC) was 74±70 and the “Staining (global score 0-3+)” value (HNPCC tissues; [4]) was 1^+. For the same substance, the “smallest amount of mucin detected” value [2] was 1 mg, the “GalNAc concentration that inhibited labeling” value [3] was no less than 250 mM and the “T-antigen concentration that inhibited labeling” value [3] was no less than 100 µM. The “galactose concentration required for partial inhibition of binding” value [3] was 400 mM, the “lactose concentration required for partial inhibition of binding” value [3] was 400 mM and the Labeling score ([3]; GalNAc 250 mM) was “Trace”. For the same substance, the Labeling score ([3]; T-antigen 100 μM) was 0, the Labeling score ([3]; T-antigen 200 μM) was 0 and the Labeling score ([3]; T-antigen 400 μM) was 0.
